Measurements from patent US20260102495A1, “METHOD FOR PRODUCING ONE OR SEVERAL SHARED CANCER EPITOPE(S) DERIVED FROM ALTERNATIVE TRANSLATIONAL CONTROL” (CENTRE LEON BERARD, priority 2022, published 2026).
No end group written: not given here.

Key:
[1] = tested on: HLA-A2+ normal human primary cells
Text: After elution, dissociation, filtration, and cleanup, peptides were lyophilized before further analysis. Transition parameters for each epitope peptide were examined and curated through Valid-NEO method builder bioinformatic pipeline to exclude ions with excessive noise due to coelution with impurities and to boost up the detectability through recursive optimizations of significant ions.

[2] = tested on: CD8+ naive T cells; assay: PBMCs priming assay on HLA-A*02:01 healthy donors with dextramer analysis; type: cell-based, human

| Sequence | presentation of epitope at the cell surface (MS transitions) [1] | donors in which priming of peptide specific CD8+ T cells was identified ([2]; 12 different donors, FIG. 2B) [donors] | dextramer positive CD8+ T cells ([2]; after 12 days priming with peptide pulsed MoDCs, FIG. 2A) [%] |
| --- | --- | --- | --- |
| LLLEATANL [PR3] | not presented by normal cells | – | – |
| SLTDLYLRI [PR5] | – | 2 | 0.068 |
